Measurements taken from publication PMC11243320, “Tailoring Fibroblast-Activation Protein Targeting for Theranostics: A Comparative Preclinical Evaluation of the ^68Ga- and ^177Lu-Labeled Monomeric and Dimeric Fibroblast-Activation Protein Inhibitors DOTA.SA.FAPi and DOTAGA.(SA.FAPi)2” (Molecules, 2024).

System: PC3 tumor-bearing mice
Test: Ex vivo biodistribution of 68Ga-labeled radiotracers in PC3 xenografts
Description: U87MG and PC3 tumor-bearing mice: Female athymic BALB/c (6 weeks/16–20 g) and male athymic BALB/c nude mice (6 weeks/20–25 g) were implanted with U87MG or PC3 cells (5 × 10^6/100 µL PBS) into their right shoulder, respectively. The animals were used for biodistribution and PET/SPECT/CT imaging studies (Animal License No: BE98/2021).
Ten pmol (0.08–0.1 MBq) of the radiotracers in 100 µL of NaCl 0.9% were injected intravenously into the tail vein of U87MG and PC3 tumor-bearing mice and biodistribution studies were conducted at 1, 2, and 3 h after injection.
Saturation Binding Studies […]
The radioactivity of the culture medium, the receptor bound , the internalized and the externalized fractions were measured in a γ -counter. The externalized fraction of radioactivity was ex-pressed as the percentage of the total internalized amount.
[68Ga]Ga -DOTA.SA.FAPi and [ 68Ga]Ga -DOTAGA.(SA.FAPi) 2
Ten pmol ( 0.08 –0.1 MBq) of [68Ga]Ga -monomer and [ 68Ga]Ga -dimer in 100 µ L of NaCl 0.9% were injected intravenously into the tail vein of U87MG or PC3 tumor bearing mice . The PC3 tumor-bearing mice were used between the 15th and 17th day after the xenograft implantation and the size was 281 ± 75 mm3. The U87MG tumor-bearing mice were used between the 7th and 9th day after the implantation and the size was 210 ± 34 mm3. Animals were terminally anesthetized by intraperitoneal injection of an overdose of pento-barbital natrium (150 mg/kg; Streuli Pharma SA, Uznach, Switzerland) at 1, 2 and 3 h after injection of the radiotracers. The organs of interest were dissected and weighed, and the radioactivity in the tissue samples […]
was counted in a γ-counter. Biodistribution data are given as the percent of injected activity per gram of tissue (% IA/g) and as means ± SD (n = 4). […]
each radiotracer along with 20 nmol of UAMC1110 (total injected volume: 100 µL) and biodistribution stud-ies were performed 2 h after injection.
[177Lu]Lu-DOTA.SA.FAPi and [177Lu]Lu-DOTAGA.(SA.FAPi)2
Ten pmol (0.06-0.08 MBq) of [177Lu]Lu-monomer and [177Lu]Lu-dimer in 100 µL of NaCl 0.9% were injected intravenously into the tail vein of PC3 tumor-bearing mice. The PC3 tumor-bearing mice were used between the 15th and 17th day after the xenograft implantation and its size was 281 ± 75 mm3. Animals were terminally anesthetized by intraperitoneal injection of an overdose of pentobarbital natrium (150 mg/kg; Streuli Pharma SA, Uznach, Switzerland) 1, 4, 24 and 48 h after the injection of [177Lu]Lu-DOTA.SA.FAPi and at 4, 24, 48, 72 and 96 h after the injection of [177Lu]Lu-DOTAGA.(SA.FAPi)2. The organs of interest were dissected and weighed, and the radioactivity in the tissue samples was counted in a γ-counter. The biodistribution data are given as the percent of injected activity per gram of tissue (% IA/g) and as means ± SD (n = 4). […]
blood pools or if they were necrotic. Both tumor types were “clean” without extended vascularization; there […]
Small Animal Imaging Studies
PET images were obtained after injection of 200 pmol of [68Ga]Ga-DOTA.SA.FAPi and [68Ga]Ga-DOT-AGA.(SA.FAPi)2 (1.0–1.6 MBq/100 μL) into U87MG or PC3 xenografts at 1, 2 and 3 h after injection. Static imaging was acquired for a time period between 10 and 45 min at 1, 2 and 3 h post injection, respectively.
To visualize the extent of FAP-specific tumor uptake, PET/CT blocking studies were performed as described above, and static scans were obtained for 30 min 2 h after the injection of the radiotracer along with the blocking agent (20 nmol).
PET images were corrected for gallium-68 decay and reconstructed with 12 iterations of the maximum a posteriori (MAP) algorithm using a voxel size of 0.25 mm. No correction was applied for attenuation. In addition, a point spread function iterative deconvolution was applied. The images were normalized, filtered using a Gaussian 3D algorithm with a 1.3 mm isotropic kernel and generated using PMOD software. The CT was carried out using step and shoot mode and employed 45 kVp and 400 uA as settings. The images […]

[1] = 2 h blocking (20 nmol UAMC1110)

N#C[C@@H]1CC(F)(F)CN1C(=O)CNC(=O)c1ccnc2ccc(OCCCCNc3c(NCCNC(=O)CN4CCN(CC(=O)[O-])CCN(CC(=O)[O-])CCN(CC(=O)[O-])CC4)c(=O)c3=O)cc12.[68Ga+3] [[^68Ga]Ga-DOTA.SA.FAPi]
Biodistribution Blood (1 h): 8.5± 0.6 % IA/g | Biodistribution Bone (1 h): 3.4±0.4 % IA/g | Biodistribution Heart (1 h): 4.6±1.6 % IA/g | Biodistribution Intestine (1 h): 2.7±0.2 % IA/g | Biodistribution Kidney (1 h): 3.6±0.3 % IA/g | Biodistribution Liver (1 h): 2.4±0.1 % IA/g | Biodistribution Lung (1 h): 3.4±0.6 % IA/g | Biodistribution Muscle (1 h): 2.5±0.2 % IA/g | Biodistribution PC3-Tumor (1 h): 6.1±0.7 % IA/g | Biodistribution Pancreas (1 h): 8.9±1.0 % IA/g | Biodistribution Spleen (1 h): 2.5±0.1 % IA/g | Biodistribution Stomach (1 h): 2.0±0.4 % IA/g | Tumor/Blood ratio (1 h): 0.7±0.03 | Tumor/Liver ratio (1 h): 1.8±0.1 | Tumor/Muscle ratio (1 h): 2.4±0.4 | Tumor/Pancreas ratio (1 h): 0.7±0.1 | Biodistribution Blood (2 h): 4.8±0.3 % IA/g | Biodistribution Bone (2 h): 2.0±0.2 % IA/g | Biodistribution Heart (2 h): 1.9±0.1 % IA/g | Biodistribution Intestine (2 h): 2.6±0.2 % IA/g | Biodistribution Kidney (2 h): 2.7±0.2 % IA/g | Biodistribution Liver (2 h): 2.7±0.2 % IA/g | Biodistribution Lung (2 h): 2.2±0.1 % IA/g | Biodistribution Muscle (2 h): 2.6±0.3 % IA/g | Biodistribution PC3-Tumor (2 h): 5.4±2.4 % IA/g | Biodistribution Pancreas (2 h): 6.4±0.5 % IA/g | Biodistribution Spleen (2 h): 1.7±0.1 % IA/g | Biodistribution Stomach (2 h): 1.4±0.1 % IA/g | Tumor/Blood ratio (2 h): 1.2±0.6 | Tumor/Liver ratio (2 h): 2.1±0.1 | Tumor/Muscle ratio (2 h): 2.1±1.2 | Tumor/Pancreas ratio (2 h): 0.9±0.4 | Biodistribution Blood [1]: 0.3±0.1 % IA/g | Biodistribution Bone [1]: 0.2±0.1 % IA/g | Biodistribution Heart [1]: 0.1±0.05 % IA/g | Biodistribution Intestine [1]: 0.4± 0.1 % IA/g | Biodistribution Kidney [1]: 1.2±0.2 % IA/g | Biodistribution Liver [1]: 0.2±0.04 % IA/g | Biodistribution Lung [1]: 0.3±0.1 % IA/g | Biodistribution Muscle [1]: 0.1±0.06 % IA/g | Biodistribution PC3-Tumor [1]: 0.5±0.1 % IA/g | Biodistribution Pancreas [1]: 0.1±0.06 % IA/g | Biodistribution Spleen [1]: 0.1± 0.04 % IA/g | Biodistribution Stomach [1]: 0.1±0.07 % IA/g | Biodistribution Blood (3 h): 4.7±0.4 % IA/g | Biodistribution Bone (3 h): 3.4±2.4 % IA/g | Biodistribution Heart (3 h): 2.0±0.1 % IA/g | Biodistribution Intestine (3 h): 2.4±0.4 % IA/g | Biodistribution Kidney (3 h): 2.4±0.4 % IA/g | Biodistribution Liver (3 h): 2.6±0.4 % IA/g | Biodistribution Lung (3 h): 2.1±0.3 % IA/g | Biodistribution Muscle (3 h): 2.3±0.2 % IA/g | Biodistribution PC3-Tumor (3 h): 5.0±0.2 % IA/g | Biodistribution Pancreas (3 h): 5.1±1.1 % IA/g | Biodistribution Spleen (3 h): 1.8±0.5 % IA/g | Biodistribution Stomach (3 h): 1.6±0.1 % IA/g | Tumor/Blood ratio (3 h): 1.8±0.2 | Tumor/Liver ratio (3 h): 3.3±0.5 | Tumor/Muscle ratio (3 h): 3.8±0.4 | Tumor/Pancreas ratio (3 h): 1.7±0.4
